We go through 15 molecules from patent US6841519B1, “Isoxazoline derivatives and herbicides containing the same as the active ingredient” (Kumiai Chemical Industry Co., Ltd., priority 1999, dated 2005).

Common to all, as to format: in vivo
Data set [1] deals with Echinochloa oryzicola Vasing. (Eo). In words: Test for herbicidal effect by paddy field soil treatment (Test Example 1). The conditions noted are these: application amount (active ingredient) 100 g/10 a, examined at the 21st day from the treatment, index per Table 40. In outline:
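Eo seeds sown in puddled paddy soil under 3 cm water; next day a water-diluted wettable powder was dropped onto the water surface at 100 g active ingredient per 10 ares. Herbicidal effect scored on a standard scale 21 days after treatment, greenhouse-grown.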

The test system of data set [2] is Setaria viridis (L.) Beauv. (Se). Kind of data set: Test for herbicidal effect by upland field soil treatment (Test Example 2), Se. In outline: (§1)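 Echinochloa crus-galli and Setaria viridis were sown in upland field soil and covered, then the soil surface was sprayed with water-diluted wettable powder at 100 g active ingredient per 10 ares (100 liters per 10 ares). Plants were grown in a greenhouse and scored on a standard scale on day 21.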

Data set [3] deals with Echinochloa oryzicola Vasing. (Eo). In words: Test for crop selectivity by paddy field soil treatment (Test Example 4), herbicidal effect on Eo. The conditions noted are these: 100 g/10 a active ingredient, 21st day. The method, boiled down:
(§2)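 Puddled paddy soil sown with Eo seeds, two-leaf rice transplanted at 2 cm depth, flooded 3 cm. Next day, wettable powder diluted in water was dropped on the water surface at 100 g a.i. per 10 ares. Herbicidal effect and rice phytotoxicity scored visually 21 days after treatment, greenhouse.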

Data set [4] deals with Echinochloa crus-galli (L.) Beauv. var. crusgalli (Ec). In words: Test for herbicidal effect by upland foliage treatment (Test Example 3). The note with it: 100 g/10 a active ingredient, examined at 14th day. The method, boiled down: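 Potted upland-soil Ec seedlings grown 2 weeks in greenhouse, then foliage-sprayed with water-diluted wettable powder at 100 L per 10 ares, giving 100 g active ingredient per 10 ares. Herbicidal effect scored on a graded standard 14 days after treatment.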

Data set [5] concerns Echinochloa crus-galli (L.) Beauv. var. crusgall (Ec). In words: Test for herbicidal effect by upland field soil treatment (Test Example 2), Ec. The method, boiled down:
as §1

The test system of another data set is rice (Or). In words: Test for crop selectivity by paddy field soil treatment (Test Example 4), phytotoxicity to rice. The note with it: transplanted two-leaf stage rice, 100 g/10 a active ingredient, 21st day. In outline: as §2
Setting [6] is: application amount (active ingredient) 100 g/10 a, examined at the 21st day from the treatment, index per Table 40.
[7] abbreviates: 100 g/10 a active ingredient, examined at 21st day.

Turning to `COC(=O)c1ccccc1CS(=O)(=O)C1=NOC(C)(C)C1` [Compound 1-145], the “Herbicidal effect to Eo” value in data set [1] and in data set [3] was 5 (A herbicidal effect or phytotoxicity of 90% or more) each time. The “Herbicidal effect to Se” value in data set [2] (setting [6]) is listed as 5 (A herbicidal effect or phytotoxicity of 90% or more). For the same molecule, the “Herbicidal effect to Ec” value is reported as 4 (A herbicidal effect or phytotoxicity of 70% to less than 90%) in data set [4] and 5 (A herbicidal effect or phytotoxicity of 90% or more) in data set [5] (setting [6]). Also, the “Phytotoxicity to Or” value with rice (Or) is on record as 0 (A herbicidal effect or phytotoxicity of 0% to less than 10%).
Take `CCC1(C)CC(S(=O)(=O)Cc2ccc(C)cc2)=NO1` (stereo not shown) [Compound 1-203]: the “Herbicidal effect to Eo” value in data set [1] and in data set [3] was 5 (A herbicidal effect or phytotoxicity of 90% or more) each time. Moreover, in data set [2] (setting [6]), the “Herbicidal effect to Se” value is given as 4 (A herbicidal effect or phytotoxicity of 70% to less than 90%). Further, the “Herbicidal effect to Ec” value is given as 4 (A herbicidal effect or phytotoxicity of 70% to less than 90%) in data set [4] and 5 (A herbicidal effect or phytotoxicity of 90% or more) in data set [5] (setting [6]). Also, the “Phytotoxicity to Or” value in the data set on rice (Or) is on record as 1 (A herbicidal effect or phytotoxicity of 10% to less than 30%).
`CCC1(C)CC(S(=O)(=O)Cc2cccc(OC)c2)=NO1` (stereo not shown) [Compound 1-229]: the “Herbicidal effect to Eo” value in data set [1] and in data set [3] was 5 (A herbicidal effect or phytotoxicity of 90% or more) each time. In addition, the “Herbicidal effect to Se” value in data set [2] (setting [6]) is given as 5 (A herbicidal effect or phytotoxicity of 90% or more). For the same molecule, the “Herbicidal effect to Ec” value in data set [4] was 4 (A herbicidal effect or phytotoxicity of 70% to less than 90%); in data set [5] (setting [6]) it was 5 (A herbicidal effect or phytotoxicity of 90% or more). For the same molecule, the “Phytotoxicity to Or” value in the data set with rice (Or) is given as 1 (A herbicidal effect or phytotoxicity of 10% to less than 30%).
For `COC(=O)c1cccc(CS(=O)(=O)C2=NOC(C)(C)C2)c1[N+](=O)[O-]` [Compound 1-503], the “Herbicidal effect to Eo” value in data set [1] and in data set [3] was 5 (A herbicidal effect or phytotoxicity of 90% or more) in each case. Also, the “Herbicidal effect to Se” value in data set [2] (setting [7]) was 5 (A herbicidal effect or phytotoxicity of 90% or more). The “Herbicidal effect to Ec” value was 4 (A herbicidal effect or phytotoxicity of 70% to less than 90%) in data set [4] and 5 (A herbicidal effect or phytotoxicity of 90% or more) in data set [5] (setting [7]). The “Phytotoxicity to Or” value in the data set with rice (Or) was 0 (A herbicidal effect or phytotoxicity of 0% to less than 10%).
With `O=S(=O)(Cc1c(F)cccc1F)C1=NOC(C2CC2)(C2CC2)C1` [Compound 1-520], the “Herbicidal effect to Eo” value in data set [1] and in data set [3] was 5 (A herbicidal effect or phytotoxicity of 90% or more) in each case. Besides, the “Herbicidal effect to Se” value in data set [2] (setting [7]) is given as 5 (A herbicidal effect or phytotoxicity of 90% or more). The “Herbicidal effect to Ec” value in data set [4] was 4 (A herbicidal effect or phytotoxicity of 70% to less than 90%); in data set [5] (setting [7]), 5 (A herbicidal effect or phytotoxicity of 90% or more). In addition, in the data set on rice (Or), the “Phytotoxicity to Or” value is reported as 1 (A herbicidal effect or phytotoxicity of 10% to less than 30%).
In the case of `CC1(C)CC(S(=O)(=O)Cc2c(N)cccc2F)=NO1` [Compound 1-549], the “Herbicidal effect to Eo” value in data set [1] and in data set [3] was 5 (A herbicidal effect or phytotoxicity of 90% or more) in each case. Also, the “Herbicidal effect to Se” value in data set [2] (setting [7]) is reported as 5 (A herbicidal effect or phytotoxicity of 90% or more). In data set [5] (setting [7]), the “Herbicidal effect to Ec” value is 5 (A herbicidal effect or phytotoxicity of 90% or more). Besides, in the data set on rice (Or), the “Phytotoxicity to Or” value was 1 (A herbicidal effect or phytotoxicity of 10% to less than 30%).
Take `COc1ccc(C(C)C)c(C)c1CS(=O)(=O)C1=NOC(C)(C)C1` [Compound 1-584]: the “Herbicidal effect to Eo” value in data set [1] and in data set [3] was 5 (A herbicidal effect or phytotoxicity of 90% or more) in each case. In addition, in data set [4], the “Herbicidal effect to Ec” value is 5 (A herbicidal effect or phytotoxicity of 90% or more). The “Phytotoxicity to Or” value in the data set with rice (Or) is given as 1 (A herbicidal effect or phytotoxicity of 10% to less than 30%).
Turning to `CCCOC(=O)c1ccccc1CS(=O)(=O)C1=NOC(C)(C)C1` [Compound 1-594], the “Herbicidal effect to Eo” value in data set [1] and in data set [3] was 5 (A herbicidal effect or phytotoxicity of 90% or more) throughout. The “Herbicidal effect to Se” value in data set [2] (setting [7]) is reported as 4 (A herbicidal effect or phytotoxicity of 70% to less than 90%). In addition, the “Herbicidal effect to Ec” value in data set [5] (setting [7]) is recorded as 5 (A herbicidal effect or phytotoxicity of 90% or more). Also, in the data set on rice (Or), the “Phytotoxicity to Or” value was 1 (A herbicidal effect or phytotoxicity of 10% to less than 30%).
For `CCCCOC(=O)c1ccccc1CS(=O)(=O)C1=NOC(C)(C)C1` [Compound 1-596], the “Herbicidal effect to Eo” value in data set [1] and in data set [3] was 5 (A herbicidal effect or phytotoxicity of 90% or more) in each case. In addition, the “Herbicidal effect to Se” value in data set [2] (setting [7]) is reported as 5 (A herbicidal effect or phytotoxicity of 90% or more). Besides, the “Herbicidal effect to Ec” value in data set [5] (setting [7]) is given as 5 (A herbicidal effect or phytotoxicity of 90% or more). Also, in the data set with rice (Or), the “Phytotoxicity to Or” value is listed as 1 (A herbicidal effect or phytotoxicity of 10% to less than 30%).
With `CCC(C)OC(=O)c1ccccc1CS(=O)(=O)C1=NOC(C)(C)C1` (stereo not shown) [Compound 1-597], the “Herbicidal effect to Eo” value in data set [1] and in data set [3] was 5 (A herbicidal effect or phytotoxicity of 90% or more) in each case. In addition, in data set [2] (setting [7]), the “Herbicidal effect to Se” value is recorded as 4 (A herbicidal effect or phytotoxicity of 70% to less than 90%). Also, in data set [5] (setting [7]), the “Herbicidal effect to Ec” value is listed as 5 (A herbicidal effect or phytotoxicity of 90% or more). Further, the “Phytotoxicity to Or” value with rice (Or) is listed as 1 (A herbicidal effect or phytotoxicity of 10% to less than 30%).
Take `CCCCOc1cccc(C)c1CS(=O)(=O)C1=NOC(C)(C)C1` [Compound 1-605]: the “Herbicidal effect to Eo” value in data set [1] and in data set [3] was 5 (A herbicidal effect or phytotoxicity of 90% or more) in each case. Further, the “Herbicidal effect to Se” value in data set [2] (setting [7]) is given as 4 (A herbicidal effect or phytotoxicity of 70% to less than 90%). The “Herbicidal effect to Ec” value in data set [5] (setting [7]) is on record as 5 (A herbicidal effect or phytotoxicity of 90% or more). Also, the “Phytotoxicity to Or” value in the data set with rice (Or) was 1 (A herbicidal effect or phytotoxicity of 10% to less than 30%).
Turning to `CC1(C)CC(S(=O)(=O)Cc2ccccc2OC2CCCCC2)=NO1` [Compound 1-610], the “Herbicidal effect to Eo” value in data set [1] and in data set [3] was 5 (A herbicidal effect or phytotoxicity of 90% or more) throughout. Also, the “Herbicidal effect to Se” value in data set [2] (setting [7]) is given as 5 (A herbicidal effect or phytotoxicity of 90% or more). Moreover, in data set [5] (setting [7]), the “Herbicidal effect to Ec” value is 5 (A herbicidal effect or phytotoxicity of 90% or more). Further, in the data set with rice (Or), the “Phytotoxicity to Or” value is 1 (A herbicidal effect or phytotoxicity of 10% to less than 30%).
For `CCCCOCc1ccccc1CS(=O)(=O)C1=NOC(C)(C)C1` [Compound 1-615], the “Herbicidal effect to Eo” value in data set [1] and in data set [3] was 5 (A herbicidal effect or phytotoxicity of 90% or more) throughout. Further, the “Herbicidal effect to Se” value in data set [2] (setting [7]) is reported as 5 (A herbicidal effect or phytotoxicity of 90% or more). In addition, the “Herbicidal effect to Ec” value in data set [5] (setting [7]) was 5 (A herbicidal effect or phytotoxicity of 90% or more). Further, the “Phytotoxicity to Or” value in the data set with rice (Or) was 1 (A herbicidal effect or phytotoxicity of 10% to less than 30%).
Take `CCCOC(=O)c1cccc(Cl)c1CS(=O)(=O)C1=NOC(C)(C)C1` [Compound 1-620]: the “Herbicidal effect to Eo” value in data set [1] and in data set [3] was 5 (A herbicidal effect or phytotoxicity of 90% or more) in each case. Moreover, the “Herbicidal effect to Se” value in data set [2] (setting [7]) is reported as 5 (A herbicidal effect or phytotoxicity of 90% or more). For the same molecule, the “Herbicidal effect to Ec” value in data set [5] (setting [7]) is 5 (A herbicidal effect or phytotoxicity of 90% or more). The “Phytotoxicity to Or” value in the data set on rice (Or) is reported as 1 (A herbicidal effect or phytotoxicity of 10% to less than 30%).
With `CS(=O)(=O)C1=NOC2(CCC2)C1` [Compound 2-29], the “Herbicidal effect to Eo” value in data set [1] and in data set [3] was 5 (A herbicidal effect or phytotoxicity of 90% or more) each time. Moreover, the “Herbicidal effect to Se” value in data set [2] (setting [7]) was 5 (A herbicidal effect or phytotoxicity of 90% or more). For the same molecule, in data set [5] (setting [7]), the “Herbicidal effect to Ec” value is 5 (A herbicidal effect or phytotoxicity of 90% or more). The “Phytotoxicity to Or” value in the data set with rice (Or) is recorded as 1 (A herbicidal effect or phytotoxicity of 10% to less than 30%).
